Test results taken from ChEMBL document CHEMBL1201862, “PubChem BioAssay data set” (2004).
Active and inactive are the calls of the source.

Experiments:
[1] = molecular target: T1, Bcl-2-related protein A1 (Mus musculus, UniProt Q07440); format: functional;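 also: confirmatory dose–response counterscreen on Bfl-1, used to check hits from a UBC13 polyubiquitin inhibitor campaign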
T1 sequence (Q07440 whole entry): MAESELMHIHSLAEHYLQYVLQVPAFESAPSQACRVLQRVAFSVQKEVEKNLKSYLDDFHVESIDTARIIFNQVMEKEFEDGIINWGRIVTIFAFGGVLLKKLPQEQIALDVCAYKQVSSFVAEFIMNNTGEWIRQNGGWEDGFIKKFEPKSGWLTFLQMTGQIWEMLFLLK

[2] = molecular target: T2, Ubiquitin-conjugating enzyme E2 N (Homo sapiens, UniProt P61088); format: functional
T2 sequence (P61088 whole entry): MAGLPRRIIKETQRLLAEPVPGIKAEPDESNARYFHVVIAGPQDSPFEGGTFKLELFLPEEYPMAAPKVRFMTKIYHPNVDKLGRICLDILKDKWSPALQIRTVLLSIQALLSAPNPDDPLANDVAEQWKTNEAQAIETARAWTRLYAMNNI

[3] = molecular target: T2, Ubiquitin-conjugating enzyme E2 N; format: functional; remark: listed apart in the source
[4] = molecular target: G-protein coupled receptor 55 (Homo sapiens, UniProt Q9Y2T6); test: blockers of GPR55 signalling, imaged – imaging, image-based, counter-screen for GPR35 antagonist project, SAR follow-up (AID 2397); format: functional
[5] = tested on: Vero; test: mammalian cell viability reduction – secondary assay, cytotoxicity control for West Nile virus antiviral project, dose response (AID 1650); format: functional; details: Chlorocebus sabaeus
[6] = Luminescence Cell-Based Dose Response HTS to Identify Inhibitors of 5'UTR Stem-Loop Driven Prion Protein mRNA Translation in H4 Neuroglioblastoma Cells. [Related pubchem assays: 1827 (Project Summary), 1813 (Primary HTS)]; format: functional
[7] = luciferase reporter signal suppression in cells – H4 neuroglioma cells, luminescence, dose response (AID 1990); format: functional, cell-based
[8] = alpha-synuclein stem-loop luciferase translation blockers – H4 neuroglioma cells, luminescence, confirmation (AID 1988); format: functional, cell-based
[9] = molecular target: SUMO-activating enzyme (Homo sapiens, UniProt Q9UBT2); test: blockers of UBC9-mediated SUMO conjugation – biochemical, AlphaScreen, SUMOylation inhibitor project, confirmation (AID 2018); format: functional
[10] = molecular target: Phosphomannomutase 2 (Homo sapiens, UniProt O15305); test: Counter screen SAR assay for PMM2 inhibitors via a fluorescence intensity assay. [Related pubchem assays (depositor defined):AID1545, AID1574]
[11] = molecular target: T3, Mannose-6-phosphate isomerase (Homo sapiens, UniProt P34949); test: MPI enzyme activity inhibition – biochemical, fluorescence intensity, coupled assay, primary screen (AID 1209)
T3 sequence (P34949 whole entry): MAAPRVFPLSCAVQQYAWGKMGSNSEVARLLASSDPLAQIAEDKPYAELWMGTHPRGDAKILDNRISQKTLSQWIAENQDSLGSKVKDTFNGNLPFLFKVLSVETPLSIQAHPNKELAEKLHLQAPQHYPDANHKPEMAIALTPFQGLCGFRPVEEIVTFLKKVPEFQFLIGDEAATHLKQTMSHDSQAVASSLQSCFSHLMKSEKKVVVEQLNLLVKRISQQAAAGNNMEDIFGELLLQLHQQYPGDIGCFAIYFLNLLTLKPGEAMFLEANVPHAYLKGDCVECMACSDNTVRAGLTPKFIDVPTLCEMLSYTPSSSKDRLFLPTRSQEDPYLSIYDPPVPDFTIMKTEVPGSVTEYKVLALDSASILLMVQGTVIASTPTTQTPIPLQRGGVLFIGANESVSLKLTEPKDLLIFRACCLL

[12] = molecular target: T3, Mannose-6-phosphate isomerase; test: phosphomannose isomerase inhibition – biochemical, fluorescence intensity, confirmation (AID 1535)
[13] = molecular target: T4, Apoptotic protease-activating factor 1 (Homo sapiens, UniProt O14727); format: functional
T4 sequence (O14727 whole entry): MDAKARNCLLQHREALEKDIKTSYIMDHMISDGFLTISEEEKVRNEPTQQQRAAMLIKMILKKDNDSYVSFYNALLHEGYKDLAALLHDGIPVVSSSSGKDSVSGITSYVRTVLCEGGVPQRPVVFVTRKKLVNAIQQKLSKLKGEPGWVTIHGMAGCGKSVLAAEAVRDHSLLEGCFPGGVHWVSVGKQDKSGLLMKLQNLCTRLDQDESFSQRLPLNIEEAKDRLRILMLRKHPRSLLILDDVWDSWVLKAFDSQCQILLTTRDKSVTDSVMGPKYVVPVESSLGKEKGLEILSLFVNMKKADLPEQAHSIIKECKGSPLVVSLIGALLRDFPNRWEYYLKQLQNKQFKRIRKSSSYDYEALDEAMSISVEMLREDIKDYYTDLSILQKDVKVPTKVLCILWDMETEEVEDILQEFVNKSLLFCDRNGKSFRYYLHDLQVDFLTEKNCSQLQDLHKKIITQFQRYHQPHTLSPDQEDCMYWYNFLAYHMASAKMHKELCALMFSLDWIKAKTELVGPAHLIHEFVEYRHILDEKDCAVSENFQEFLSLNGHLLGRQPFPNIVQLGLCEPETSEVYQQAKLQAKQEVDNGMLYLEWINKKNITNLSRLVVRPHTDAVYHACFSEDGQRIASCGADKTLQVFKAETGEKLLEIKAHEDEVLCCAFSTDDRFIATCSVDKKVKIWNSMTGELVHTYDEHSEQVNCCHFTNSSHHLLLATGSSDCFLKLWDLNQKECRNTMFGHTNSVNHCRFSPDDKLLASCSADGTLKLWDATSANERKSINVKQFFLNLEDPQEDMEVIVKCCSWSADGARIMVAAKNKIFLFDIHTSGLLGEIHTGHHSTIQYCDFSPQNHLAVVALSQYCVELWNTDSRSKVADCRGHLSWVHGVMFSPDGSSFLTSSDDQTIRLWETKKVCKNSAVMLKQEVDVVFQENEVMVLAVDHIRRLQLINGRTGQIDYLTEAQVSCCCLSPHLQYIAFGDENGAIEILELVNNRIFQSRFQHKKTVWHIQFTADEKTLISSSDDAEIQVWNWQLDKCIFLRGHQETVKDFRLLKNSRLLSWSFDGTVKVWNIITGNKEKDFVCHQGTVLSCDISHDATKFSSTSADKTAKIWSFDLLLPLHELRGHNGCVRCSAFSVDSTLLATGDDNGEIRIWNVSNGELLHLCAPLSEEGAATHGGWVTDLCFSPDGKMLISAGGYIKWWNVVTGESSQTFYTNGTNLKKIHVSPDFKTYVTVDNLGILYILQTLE

[14] = molecular target: T5, Protein RecA (Mycobacterium tuberculosis, UniProt P9WHJ3); test: Fluorescence Cell-Free Homogeneous Dose Retest to Identify Inhibitors of RecA-Intein Splicing Activity. [Related pubchem assays (depositor defined):AID2097, AID2223, AID489010, AID492950]; format: functional
T5 sequence (P9WHJ3 whole entry): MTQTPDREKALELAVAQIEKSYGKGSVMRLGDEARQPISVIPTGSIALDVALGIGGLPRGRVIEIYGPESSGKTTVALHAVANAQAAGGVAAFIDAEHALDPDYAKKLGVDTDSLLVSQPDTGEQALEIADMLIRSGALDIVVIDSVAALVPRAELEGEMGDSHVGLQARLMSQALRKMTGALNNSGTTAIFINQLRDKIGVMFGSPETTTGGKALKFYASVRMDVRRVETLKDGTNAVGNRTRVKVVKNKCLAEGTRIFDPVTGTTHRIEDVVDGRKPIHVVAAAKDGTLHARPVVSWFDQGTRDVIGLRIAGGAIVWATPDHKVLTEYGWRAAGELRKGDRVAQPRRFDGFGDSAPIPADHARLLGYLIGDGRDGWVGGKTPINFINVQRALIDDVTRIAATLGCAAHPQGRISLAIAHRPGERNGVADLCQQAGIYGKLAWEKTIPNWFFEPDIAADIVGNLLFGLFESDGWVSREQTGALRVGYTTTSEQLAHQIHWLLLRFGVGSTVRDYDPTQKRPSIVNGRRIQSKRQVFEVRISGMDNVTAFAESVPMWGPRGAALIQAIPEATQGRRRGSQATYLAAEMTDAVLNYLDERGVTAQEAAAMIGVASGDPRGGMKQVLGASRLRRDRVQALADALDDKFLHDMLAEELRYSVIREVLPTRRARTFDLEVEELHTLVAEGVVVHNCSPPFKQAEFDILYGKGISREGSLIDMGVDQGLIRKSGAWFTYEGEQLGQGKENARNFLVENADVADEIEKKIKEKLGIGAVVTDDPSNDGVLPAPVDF

[15] = molecular target: T6, Replicative DNA helicase DnaB (Mycobacterium tuberculosis, UniProt P9WMR3); test: DnaB intein splicing inhibitors, dose response, biochemical, cell-free fluorescence (AID 449749); format: functional
T6 sequence (P9WMR3 whole entry): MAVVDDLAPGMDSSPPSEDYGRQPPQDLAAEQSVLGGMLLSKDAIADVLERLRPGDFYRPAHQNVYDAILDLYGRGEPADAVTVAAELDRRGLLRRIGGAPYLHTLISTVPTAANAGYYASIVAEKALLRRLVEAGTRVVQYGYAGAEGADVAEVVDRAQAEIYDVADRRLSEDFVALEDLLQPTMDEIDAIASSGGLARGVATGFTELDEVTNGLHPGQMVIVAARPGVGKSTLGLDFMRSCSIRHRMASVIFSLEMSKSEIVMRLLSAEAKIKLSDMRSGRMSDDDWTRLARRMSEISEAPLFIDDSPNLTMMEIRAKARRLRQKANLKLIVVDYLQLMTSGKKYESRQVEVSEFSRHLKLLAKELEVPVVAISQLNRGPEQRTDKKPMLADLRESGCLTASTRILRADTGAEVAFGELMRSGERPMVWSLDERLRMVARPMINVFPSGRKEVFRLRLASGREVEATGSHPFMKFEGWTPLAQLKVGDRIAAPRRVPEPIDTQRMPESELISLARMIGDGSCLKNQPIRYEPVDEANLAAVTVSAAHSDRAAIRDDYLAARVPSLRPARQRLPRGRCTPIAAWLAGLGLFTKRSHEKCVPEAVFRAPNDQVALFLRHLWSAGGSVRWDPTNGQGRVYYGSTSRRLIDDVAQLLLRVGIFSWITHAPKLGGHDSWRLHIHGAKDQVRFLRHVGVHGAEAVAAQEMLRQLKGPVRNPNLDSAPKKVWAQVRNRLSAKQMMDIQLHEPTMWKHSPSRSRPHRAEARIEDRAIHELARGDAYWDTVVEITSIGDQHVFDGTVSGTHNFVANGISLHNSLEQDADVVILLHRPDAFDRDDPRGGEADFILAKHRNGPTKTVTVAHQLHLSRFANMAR

[16] = NIH-3T3 fibroblast cytotoxicity, dose response, cytotoxicity control, cell-based, fluorescence, Alamar Blue, secondary assay (AID 2327); format: functional;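 also: NIH-3T3 mouse fibroblasts cultured with fluconazole at 8 µg/mL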
[17] = fluconazole-exposed Candida albicans growth modulators – fluorescence, retest, confirmation (AID 2467); format: functional, cell-based

Chain of SUMO-activating enzyme (Q9UBE0 whole entry): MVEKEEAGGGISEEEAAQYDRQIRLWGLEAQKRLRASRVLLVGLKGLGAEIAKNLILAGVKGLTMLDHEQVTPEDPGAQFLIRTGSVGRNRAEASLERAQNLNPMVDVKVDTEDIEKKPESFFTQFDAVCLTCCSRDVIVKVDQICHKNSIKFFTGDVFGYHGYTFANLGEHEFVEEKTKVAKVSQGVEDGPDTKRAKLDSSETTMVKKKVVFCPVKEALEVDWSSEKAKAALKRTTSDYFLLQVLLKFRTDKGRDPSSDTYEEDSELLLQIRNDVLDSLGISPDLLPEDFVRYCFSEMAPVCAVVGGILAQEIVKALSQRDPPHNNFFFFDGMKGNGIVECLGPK
Chain of SUMO-activating enzyme (Q9UBT2 whole entry): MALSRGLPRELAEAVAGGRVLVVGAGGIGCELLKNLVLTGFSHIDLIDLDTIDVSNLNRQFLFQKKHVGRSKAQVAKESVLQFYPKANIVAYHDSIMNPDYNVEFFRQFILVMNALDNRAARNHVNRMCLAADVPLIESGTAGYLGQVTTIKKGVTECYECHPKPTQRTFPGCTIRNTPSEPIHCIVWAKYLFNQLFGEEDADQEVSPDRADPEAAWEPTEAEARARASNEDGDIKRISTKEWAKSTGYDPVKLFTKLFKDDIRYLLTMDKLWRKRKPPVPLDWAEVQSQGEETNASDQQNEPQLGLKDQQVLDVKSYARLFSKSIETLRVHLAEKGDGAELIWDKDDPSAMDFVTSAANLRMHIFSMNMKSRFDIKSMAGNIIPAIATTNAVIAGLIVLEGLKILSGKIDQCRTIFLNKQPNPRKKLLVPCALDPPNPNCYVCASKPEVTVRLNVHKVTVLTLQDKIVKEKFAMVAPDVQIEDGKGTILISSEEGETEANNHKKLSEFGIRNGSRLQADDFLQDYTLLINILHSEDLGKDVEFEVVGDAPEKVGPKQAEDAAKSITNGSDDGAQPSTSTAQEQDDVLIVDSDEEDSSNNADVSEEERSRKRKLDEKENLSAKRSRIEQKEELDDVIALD
Chain of Phosphomannomutase 2 (O15305 whole entry): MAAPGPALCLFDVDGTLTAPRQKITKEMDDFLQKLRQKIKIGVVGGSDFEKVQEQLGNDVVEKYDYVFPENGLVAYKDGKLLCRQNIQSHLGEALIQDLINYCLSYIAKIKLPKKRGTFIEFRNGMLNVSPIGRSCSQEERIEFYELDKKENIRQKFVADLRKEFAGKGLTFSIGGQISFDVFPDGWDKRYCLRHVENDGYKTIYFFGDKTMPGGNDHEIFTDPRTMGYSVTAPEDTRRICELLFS
Chain of G-protein coupled receptor 55 (Q9Y2T6 whole entry): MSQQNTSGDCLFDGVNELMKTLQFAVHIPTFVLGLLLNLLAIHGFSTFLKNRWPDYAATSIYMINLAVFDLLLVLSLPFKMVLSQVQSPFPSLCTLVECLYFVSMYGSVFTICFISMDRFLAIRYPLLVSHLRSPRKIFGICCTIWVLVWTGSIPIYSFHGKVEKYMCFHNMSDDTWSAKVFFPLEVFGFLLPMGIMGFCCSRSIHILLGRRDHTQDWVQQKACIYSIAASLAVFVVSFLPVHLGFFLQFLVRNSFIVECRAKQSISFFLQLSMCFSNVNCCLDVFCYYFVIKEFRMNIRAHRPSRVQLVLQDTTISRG

For CCOc1ccc(N(C(=O)c2snc(C(N)=O)c2N)C(CC)C(=O)NC2CCCC2)cc1 (stereo unspecified), the IC50 [1] was > 20 µM (inactive), the IC50 [2] was 12.3 µM (active) and the IC50 [3] was 10.1 µM (active).
For CCc1ccc(NC(=O)CSc2nc3ccsc3c(=O)n2Cc2ccc(OC)cc2)cc1, the IC50 [4] was > 32 µM (inactive).
With CCC(=O)NC(=S)NNC(=O)c1ccc(NC(=O)c2ccccc2)cc1 the IC50 [1] was > 20 µM (inactive), the IC50 [2] was 3.81 µM (active) and the IC50 [3] was 11.4 µM (active).
For COc1ccc(NC(=O)C(=O)N/N=C\c2ccc(CNC(=O)C(=O)Nc3ccc(C)c(C)c3)o2)c(OC)c1, the CC50 [5] was 15.1 µM (active), the EC50 [6] was 9.34 µM (active) and the EC50 [7] was 6.59 µM (active). The EC50 [8] was 5.4 µM (active) and the IC50 [9] was 30.4 µM (active).
For Cc1ccc(NC2Nc3cc(C)nn3S2)c(C)c1 (stereo unspecified), the IC50 [10] was > 100 µM (inactive), the IC50 [11] was 11.2 µM (active) and the IC50 [12] was > 50 µM (inactive).
In the case of O=[N+]([O-])c1cccc(/C=N/c2cccc3ccccc23)c1O, the IC50 [13] was 56.6 µM (active), the EC50 [14] was 41.9 µM (active) and the AC50 [15] was 54.6 µM (active). For the same compound, the IC50 [9] was 20.4 µM (active), the EC50 [16] was 107 µM (active) and the EC50 [17] was 3.78 µM (active).
